From US7514555B2, “Compounds for the treatment of metabolic disorders” (Wellstat Therapeutics Corporation, priority 2003, dated 2009) come the findings set out here.

“Also recorded” adds a separate entry of the source.

The test system of assay [1] is db/db mice. As to the kind of experiment: Antidiabetic effects in db/db mice, daily oral dosing for 4 weeks. It counts as in vivo. To be noted: for effect on blood glucose (in words) / effect on free fatty acids (in words) / effect on serum triglycerides (in words): 4 weeks of daily oral dosing; for effect on blood glucose (in words): versus vehicle; for effect on free fatty acids (in words) / effect on serum triglycerides (in words): versus vehicle-treated db/db mice; for Glucose ± SEM: serum glucose; for Glucose ± SEM / Free Fatty Acids ± SEM / Triglycerides ± SEM: 100 mg/kg daily oral, 4 weeks; for Free Fatty Acids ± SEM / Triglycerides ± SEM: serum. The text has this: (§1) Db/db mice have a defect in leptin signaling, leading to hyperphagia, obesity and diabetes. Moreover, unlike ob/ob mice on a C57BL/6J background, db/db mice on a C57BLKS background undergo failure of their insulin-producing pancreatic islet cells, resulting in progression from hyperinsulinemia (associated with peripheral insulin resistance) to hypoinsulinemic diabetes.
(§2) Male obese (db/db homozygote) C57BL/Ksola mice approximately 8 weeks of age, were obtained from Jackson Labs (Bar Harbor, Me.) and randomly assigned into groups of 5-7 animals such that the body weights (40-45 g) and serum glucose levels (≧300 mg/dl in fed state) were similar between groups; male lean (db/+heterozygote) mice served as cohort controls. A minimum of 7 days was allowed for adaptation after arrival. All animals were maintained under controlled temperature (23° C.), relative humidity (50±5%) and light (7:00-19:00), and allowed free access to standard chow (Formulab Diet 5008, Quality Lab Products, Elkridge, Md.) and water.
Treatment cohorts were given daily oral doses of vehicle, Compound BI (100 mg/kg), or Compound CR (100 mg/kg) for 4 weeks. At the end of the treatment period 100 μl of venous blood was withdrawn in a heparinized capillary tube from the retro-orbital sinus for serum chemistry analysis.

Assay [2] concerns db/db mice. Description: Antidiabetic effects in db/db mice, daily oral dosing for 2 weeks. It counts as in vivo. As to conditions: for Glucose / Glucose (% of Control) / Free Fatty Acids ± SEM / Glucose ± SEM / Triglycerides ± SEM: 100 mg/kg daily oral; for Glucose / Glucose (% of Control): 2 weeks; for Glucose (% of Control): relative to vehicle control; for effect on blood glucose (in words) / effect on free fatty acids (in words) / effect on triglycerides (in words): 2 weeks of daily oral dosing; for Free Fatty Acids ± SEM / Glucose ± SEM / Triglycerides ± SEM: plasma serum, 2 weeks (Table IV).
From the text: as §1, §2
[…] At the end of the treatment period 100 μl of venous blood was withdrawn in a heparinized capillary tube from the retro-orbital sinus for serum chemistry analysis.
The same procedure as Example 2 was followed.

`Cc1cccc(C)c1COc1cccc([C@H](O)CCC(=O)O)c1` [Compound CR, 4-(3-(2,6-Dimethylbenzyloxy)-phenyl)-4(R)-hydroxybutanoic acid]: in assay [1], the “effect on blood glucose (in words)” value was “significant reduction”, the “effect on free fatty acids (in words)” value is listed as “reduced; also recorded: did result in a decrease”, the “effect on serum triglycerides (in words)” value is “reduced” and the “Glucose ± SEM” value was found to be 235 ± 49 mg/dL. Besides, in assay [1], the “Free Fatty Acids ± SEM” value amounted to 1634 ± 78 µM and the “Triglycerides ± SEM” value turned out to be 182 ± 29 mg/dL. In assay [2], the Glucose is 263.2 ± 59.0 mg/dL, the “Glucose (% of Control)” value is listed as 35 ± 8 % of Control, the “effect on blood glucose (in words)” value is listed as “significant reduction” and the “effect on free fatty acids (in words)” value is “not CR caused a decrease”. For the same molecule, in assay [2], the “effect on triglycerides (in words)” value was “markedly reduce”, the “Free Fatty Acids ± SEM” value turned out to be 1326.3 ± 124.2, the “Glucose ± SEM” value worked out at 263.2 ± 59.0 and the “Triglycerides ± SEM” value is reported as 86.3 ± 9.4.

For the molecule `Cc1cccc(C)c1COc1cccc(C(=O)CCC(=O)O)c1` [Compound BI, 4-(3-(2,6-Dimethylbenzyloxy)-phenyl)-4-oxobutanoic acid, reference compound], in assay [1], the “effect on blood glucose (in words)” value was “significant reduction”, the “effect on free fatty acids (in words)” value is reported as “reduced”, the “effect on serum triglycerides (in words)” value is “reduced” and the “Glucose ± SEM” value came to 189 ± 25 mg/dL. In addition, in assay [1], the “Free Fatty Acids ± SEM” value is 1387 ± 101 µM and the “Triglycerides ± SEM” value came to 125 ± 11 mg/dL. Also, in assay [2], the Glucose was 317.4 ± 48.0 mg/dL, the “Glucose (% of Control)” value is given as 42 ± 6 % of Control, the “effect on blood glucose (in words)” value is listed as “significant reduction” and the “effect on free fatty acids (in words)” value is given as “caused a decrease”. Also, in assay [2], the “effect on triglycerides (in words)” value is reported as “markedly reduce”, the “Free Fatty Acids ± SEM” value is 1070.3 ± 96.4, the “Glucose ± SEM” value was determined as 317.4 ± 48.0 and the “Triglycerides ± SEM” value worked out at 136.3 ± 18.1.
